The NIST ThermoML archive (doi:10.1016/j.jct.2017.05.006)
Numbers after ± are expanded uncertainties.

Assay: osmotic coefficient (dimensionless); mn = molality of the nth substance listed, in mol/kg
Settings: 298.15 K, Liquid, isopiestic method

In the case of `O=S(=O)([O-])[O-].[Mg+2]` [magnesium sulfate] + O, the osmotic coefficient (m1 = 1.562) is reported as 0.586 ± 0.016, the osmotic coefficient (m1 = 1.585) is reported as 0.593 ± 0.016 and the osmotic coefficient (m1 = 1.607) is reported as 0.595 ± 0.016. For the same molecule, the osmotic coefficient (m1 = 1.643) was 0.601 ± 0.015, the osmotic coefficient (m1 = 1.7) was 0.609 ± 0.015 and the osmotic coefficient (m1 = 1.742) was 0.617 ± 0.015. The osmotic coefficient (m1 = 1.803) was 0.625 ± 0.015, the osmotic coefficient (m1 = 1.884) was 0.641 ± 0.014 and the osmotic coefficient (m1 = 2.007) was 0.665 ± 0.013. The osmotic coefficient (m1 = 2.132) was 0.692 ± 0.012, the osmotic coefficient (m1 = 2.243) was 0.714 ± 0.011 and the osmotic coefficient (m1 = 2.385) was 0.746 ± 0.01.

`O=[N+]([O-])[O-].O=[N+]([O-])[O-].[Mg+2]` [magnesium nitrate] + O showed an osmotic coefficient (m1 = 0.7578) of 1.015 ± 0.005, an osmotic coefficient (m1 = 0.855) of 1.032 ± 0.0058 and an osmotic coefficient (m1 = 0.9755) of 1.071 ± 0.009. For the same molecule, the osmotic coefficient (m1 = 1.067) was 1.103 ± 0.0066, the osmotic coefficient (m1 = 1.126) was 1.115 ± 0.0072 and the osmotic coefficient (m1 = 1.15) was 1.122 ± 0.0076. For the same molecule, the osmotic coefficient (m1 = 1.187) was 1.13 ± 0.013, the osmotic coefficient (m1 = 1.191) was 1.135 ± 0.0096 and the osmotic coefficient (m1 = 1.234) was 1.143 ± 0.008. For the same molecule, the osmotic coefficient (m1 = 1.309) was 1.172 ± 0.011 and the osmotic coefficient (m1 = 1.395) was 1.196 ± 0.0091.
